Values quoted from earlier work, collected in US20240024221A1, “COMPOSITION FOR BRIGHTENING AND/OR WHITENING KERATIN MATERIALS” (L'OREAL, priority 2020, published 2024).

details: 25° C.; raw material table

Which HLB does the source give for `CCCCCCCCCCCC[N+](C)(C)CC(=O)[O-]` [LAURYL BETAINE] here?
The HLB was 15.

For `CCCCCCCCCCC(CCCCCCCC)CO[C@@H]1OC[C@@H](O)[C@H](O)[C@H]1O` (some centres unmarked) [OCTYLDODECYL XYLOSIDE], which HLB is on record?
Its HLB is 7.3.

With POLYGLYCERYL-2 OLEATE as the compound, how does the HLB read?
Its HLB is 8.

For POLYSORBATE 20, which HLB is on record?
The HLB was 18.6.

With SODIUM DILAURAMIDOGLUTAMIDE LYSINE as the compound, how does the HLB read?
The HLB was 12.6.
